Data set [1] relates to SDMA. The experiment in a line: Immunoblot of SDMA (PRMT5-dependent mark). Format: cell-based. The settings on record: 96 h, HCT116 MTAP−/− cells.
A further data set deals with FANCA. The experiment in a line: RT-PCR of FANCA and DI-containing transcripts. The settings on record: 72 h. Format: cell-based.
The test system of a further data set is HCT116 MTAP−/− xenograft. Briefly: Xenograft combination treatment study. Format: in vivo, mice. The conditions noted are these: JNJ-64619178 1.0 mg/kg alone. The method, then:
(§1) Subcutaneous injections of HCT116 MTAP ^−/− cells were performed (5 × 10^6 cells in 100 µL) into Nu/Nu female mice. Mice were observed daily for the development of tumors. Six days after tumor implantation, mice were randomly distributed into different groups. SCR‐7952, AG‐270, JNJ‐64619178, or vehicle (water with 5% N‐methylpyrrolidone and 10% solutol HS‐15) were daily administrated by oral gavage. Tumor volumes and body weights were recorded three times per week. Tumor volumes were measured in two dimensions using a caliper, and the volume was expressed in mm^3 using the formula: V = (L × W × W)/2, where V is tumor volume, L is tumor length (the longest tumor dimension), and W is tumor width (perpendicular to L). The tumor growth inhibition rate (TGI%) of each dosing group was calculated according to the following formula: %TGI = (1 − (V t(treatment group) − V 0(treatment group))/(V t(vehicle group) − V 0(vehicle group))) × 100%, where V t is average tumor volume of a dosing group on a specific day, V 0 is average tumor volume of a dosing group on the initial day. At the end of the study, plasma and tumor tissues were collected and stored at −80°C for further measurement.

For data set [2], the system named is SDMA. Briefly: Tumor SDMA levels in combination xenograft study. Format: in vivo, mice. The conditions noted are these: JNJ-64619178 1.0 mg/kg alone.
For data set [3], the target named is T1, MAT2A (Homo sapiens, UniProt P31153).
T1 construct: purchased Pharmaron 210405‐HWR‐20210429
T1 sequence (P31153 whole entry): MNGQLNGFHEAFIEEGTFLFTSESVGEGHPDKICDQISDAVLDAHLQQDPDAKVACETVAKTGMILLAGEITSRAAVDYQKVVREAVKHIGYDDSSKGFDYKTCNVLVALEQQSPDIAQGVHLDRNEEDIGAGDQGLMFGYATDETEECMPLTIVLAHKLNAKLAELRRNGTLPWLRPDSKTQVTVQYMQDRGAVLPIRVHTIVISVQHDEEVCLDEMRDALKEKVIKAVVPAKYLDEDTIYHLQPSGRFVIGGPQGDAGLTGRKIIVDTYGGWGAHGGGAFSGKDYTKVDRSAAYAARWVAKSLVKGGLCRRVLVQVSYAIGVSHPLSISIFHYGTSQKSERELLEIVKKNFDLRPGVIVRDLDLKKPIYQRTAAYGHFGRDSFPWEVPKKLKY
On the set-up: method as in earlier work. The settings on record: read-out: IC50, inhibition of MAT2A activity; cited from earlier work.

Another data set has as its system MTAP−/− cancer cells. Also on record: method as in earlier work. The settings on record: read-out: IC50, antiproliferation on MTAP−/− cancer cells; cited from earlier work.
For data set [4], the system named is MTAP-deleted squamous NSCLC. On the set-up: method as in NCT04794699. The settings on record: 3/4 patients, up to 50% circulating tumor DNA decrease; ref NCT04794699; cited from earlier work.
Data set [5] has as its target T1, MAT2A. Also on record: method as in PMID 28553945. The settings on record: chemical assay; cited from earlier work.
The subject of a further data set is Huh-7 cells. On the set-up: method as in PMID 28553945. The settings on record: read-out: IC50, antiproliferative effect on Huh-7 cells; cited from earlier work.
The subject of data set [6] is mixed-lineage leukemia-rearranged (MLLr) leukemia. On the set-up: method as in PMID 32456310. The conditions noted are these: read-out: IC50, antiproliferation in MLLr leukemia; cited from earlier work.
For data set [7], the system named is HCT116 MTAP−/− cells. The experiment in a line: Intracellular SAM inhibition assay. The format is cell-based. The settings on record: Homo sapiens, HCT-116, 6 h, read-out: IC50, cellular SAM levels. Here is the method: MAT2A inhibition in the cellular environment was monitored by measurement of the abundance of its product SAM in HCT116 MTAP ^−/− cells. HCT116 MTAP ^−/− cells were plated in 96‐well cell culture plates at 50,000 cells per well and allowed to attach overnight at 37°C in 5% CO2. Compounds were added in a dose–response format to generate a 10‐point dose–response curve. Doses were started at a 10 µM top concentration with 1:5 serial dilution. After 6 h of incubation, the medium was removed and cells were extracted with 50% methanol containing 1 M acetic acid for SAM metabolite measurement by UPLC‐MS/MS.
The standard SAM solution was prepared in a surrogate matrix of 50% methanol containing 1 M acetic acid with a concentration range of 3–1000 ng/mL. The quality control sample was prepared in the same surrogate matrix. SAM‐d 3 was used as the internal standard (IS). A Waters UPLC system coupled with a SCIEX Triple Quad™ 6500^+ mass spectrometer […] was used to analyze the samples. Samples were separated on an ACQUITY UPLC® BEH amide column (2.1 × 50 mm, 1.7 µm). The mobile phase consisted of 5% acetonitrile containing 5 mM NH4OAc and 1% (v/v) formic acid (A) and 95% acetonitrile containing 5 mM NH4OAc and 1% (v/v) formic acid (B). […] SAM and SAM‐d 3 were detected with multiple‐reaction monitoring of a mass transition pair at m/z 399.2/250.2 and […], respectively.

For a further data set, the system named is A549. Briefly: Proliferation assay (CellTiter-Glo). The format is cell-based. The conditions noted are these: Homo sapiens, A549, 144 h; MTAP-deleted, 6-day; read-out: IC50, anti-proliferation A549. Here is the method: (§2) HCT116 colon carcinoma parental (WT) cells with MTAP ^−/− isogenic clone were established by KYinno Biotechnology Co., Ltd. (Beijing, China). A549, MIA PaCa‐2, and WI‐38 cell lines were obtained from ATCC. NCI‐H838 was obtained from Cobioer Biosciences. HCT116 WT and KO MTAP cells were cultured in McCoy's 5A media containing 10% FBS. A549 cells were cultured in DMEM media containing 10% FBS. MIA PaCa‐2 cells were cultured in DMEM media containing 10% FBS and 2.5% horse serum. NCI‐H838 cells were cultured in PRMI 1640 media containing 10% FBS. WI‐38 cells were cultured in EMEM media containing 10% FBS.
(§3) Cells were plated in 96‐well cell culture plates and allowed to attach overnight at 37°C in 5% CO2. Compounds diluted in DMSO were added to cells in a dose–response format for 6 days. The final concentration of DMSO was 0.1% in media. Cell proliferation was measured using CellTiter‐Glo Cell Viability Assay (Promega). The IC50 values were calculated using the GraphPad Prism 9. Drug combination effects were analyzed using Combenefit software.[45]
(In general: Cellular ATP, detected with luciferase, serves as a proxy for viable cell number.)

In data set [8] the test system is HCT116 MTAP−/− cells. Briefly: Proliferation assay (CellTiter-Glo). The format is cell-based. The settings on record: Homo sapiens, HCT-116, 144 h; 6-day treatment; read-out: IC50, anti-proliferation HCT116 MTAP−/−. The method, then:
as §2, §3

Another data set relates to HCT116 WT cells. Briefly: Proliferation assay (CellTiter-Glo). The settings on record: Homo sapiens, HCT-116, 144 h; 6-day treatment; read-out: IC50, anti-proliferation HCT116 WT. Format: cell-based. The method, then: as §2, §3
In another data set the test system is MIA PaCa-2. The experiment in a line: Proliferation assay (CellTiter-Glo). The format is cell-based. The conditions noted are these: Homo sapiens, MIA PaCa-2, 144 h; MTAP-deleted, 6-day; read-out: IC50, anti-proliferation MIA PaCa-2. The method, then: as §2, §3
The subject of a further data set is NCI-H838. Briefly: Proliferation assay (CellTiter-Glo). The format is cell-based. The conditions noted are these: Homo sapiens, NCI-H838, 144 h; MTAP-deleted, 6-day; read-out: IC50, anti-proliferation NCI-H838. Here is the method: as §2, §3
In data set [9] the test system is WI-38 (human fetal lung fibroblast cells). Briefly: Proliferation assay (CellTiter-Glo). The conditions noted are these: Homo sapiens, WI-38, MTAP WT; read-out: IC50, anti-proliferation WI-38. Format: cell-based. Here is the method:
as §2, §3

For data set [10], the system named is HCT116 MTAP−/− subcutaneous xenograft. Briefly: Xenograft efficacy study, monotherapy. The format is in vivo, mice. The settings on record: AG-270 200 mg/kg oral. The method, then: An efficacy study in an HCT116 MTAP ^−/− subcutaneous xenograft mouse model was performed to evaluate the antitumor effect of SCR‐7952, with once daily (q.d.) oral dosing of 0.25, 0.5, 1.0, or 3.0 mg/kg, respectively.
Nu/Nu female mice (6–12 weeks old; Beijing Vital River Laboratory Animal Technology Co., Ltd.) were used for in vivo xenograft studies. All experimental procedures involving animals and their care were in accordance with the State Council Regulations for Laboratory Animal Management (Enacted in 1988) and approved by the Institutional Animal Care and Use Committee of Jiangsu Simcere Pharmaceutical Co., Ltd. (IACUC; Approval No. AP‐056).
as §1

Data set [11] is described as follows: Plasma bilirubin in mice after oral treatment. Format: in vivo. The settings on record: AG-270 200 mg/kg, 2 h after final dose.
Data set [12] can be described thus: Plasma pharmacokinetics after multiple administration in xenograft mice. Format: in vivo. The settings on record: AG-270 200 mg/kg.
Another data set deals with UGT1A1. On the set-up: method as in PMID 16765731. The settings on record: off-target activity of AG-270; cited from earlier work.

Values joined by “and” are separate entries in the source; they are usually repeats but may differ in a detail not shown here. Identical values can stand only once. Like-named read-outs stand apart in the source and are kept apart here.

Usually TGI stands for how far tumour growth fell short of that in controls. For the compound `Nc1nc2cc(CC[C@H]3C[C@@H](n4ccc5c(N)ncnc54)[C@H](O)[C@@H]3O)ccc2cc1Br` [JNJ‐64619178, reference compound], in the data set with SDMA [1], the “SDMA level (immunoblot)” value is “reduction of SDMA”. Further, the “expression of FANCA DI-containing transcripts” value with FANCA is reported as “increase of FANCA DI‐containing transcripts”. Besides, the TGI in the data set on HCT116 MTAP−/− xenograft is recorded as 54.0%. The “tumor SDMA levels” value in the data set on SDMA [2] is reported as “remarkable reduction”.
`Nc1nc(=O)n(-c2ccccc2Cl)c2nc(C(F)(F)F)ccc12` [IDE397]: the IC50 at MAT2A [3] was roughly 0.01 µM; with MTAP−/− cancer cells, roughly 0.02 µM. Also, in [4], the molecular responses was 75%.
As for `CN(C)CCc1nnc2cc(-c3ccccc3)c3cc(Cl)ccc3n12` [PF‐9366], the IC50 was 0.42 µM at MAT2A [5]; ~10 µM and 10 µM in the data set on Huh-7 cells; roughly 10 µM in data set [6].
Consider `COc1ccc(-c2c(Nc3ccccn3)[nH]c3c(C4=CCCCC4)c(-c4ccccc4)nn3c2=O)cc1` [AG‐270, reference compound], for which the IC50 was found to be 0.0058 µM in the data set with HCT116 MTAP−/− cells [7]; 0.646 µM with A549; 0.3 µM with HCT116 MTAP−/− cells [8]; 1.22 µM in the data set with HCT116 WT cells; 0.935 µM in the data set on MIA PaCa-2; 0.0939 µM in the data set on NCI-H838. The IC50 in data set [9] was 1.41 µM; in the data set with UGT1A1, 1.1 µM. Moreover, the TGI in [10] is given as 52.0%. Besides, the “effect on plasma total, direct and unconjugated bilirubin” value in data set [11] is listed as “remarkably increased”. Moreover, in [12] (calculated), the AUC0-24h free drug is 3.829 µg·h/mL. In addition, the AUC(0-t) in [12] (Nu/Nu, mouse, oral, plasma, HCT116 MTAP−/− xenograft mice, read-out: AUC0-24h total) was 383 µg·h/mL.

Values taken from paper PMC11413503, “SCR‐7952, a highly selective MAT2A inhibitor, demonstrates synergistic antitumor activities in combination with the S‐adenosylmethionine‐competitive or the methylthioadenosine‐cooperative protein arginine methyltransferase 5 inhibitors in methylthioadenosine phosphorylase‐deleted tumors” (MedComm, 2024).
